In patent publication US20120065181A1, “METHOD OF PROVIDING NEUROPROTECTION USING SUBSTITUTED PORPHYRINS” (priority 2009, published 2012):

Experiments:
[1] = tested on: subarachnoid hemorrhage (SAH) in mice; assay: Neurologic evaluation after murine subarachnoid hemorrhage (endovascular perforation); type: in vivo
Excerpt: At completion of the predefined recovery interval, rats underwent a neurologic examination to evaluate sensorimotor function. The neurological scoring system evaluates four different functions (general status, simple motor deficit, complex motor deficit, and sensory deficit). The score given to each animal (by an observer blinded to group assignment) was the sum of all four individual scores, 0 being the minimum (best) score and 48 being the maximum (worst) score. This examination was developed combining features from several neurologic evaluations reported for rat MCAO and has been used in two long-term MCAO outcome studies to assess for differences in treatment outcome (Yokoo et al. Anesth Analg. 2004; 99:896-903; Sakai et al. Anesthesiology. 2007; 106:92-99; discussion 98-10.) Values from this scoring system correlate well with total infarct volume in rats allowed to survive 8 weeks post-MCAO (R2 value of 0.78, P=0.006, Sakai et al.) as well as 2 and 8 weeks post-MCAO (Yokoo et al.). […]
Seventy-two hrs post-SAH, mice were neurologically evaluated as described above, with the experimenter blinded to group assignment. Normal neurologic function was scored as 0 with the maximal deficit score=48. […]

[2] = tested on: cerebral arteries of mice post-SAH; assay: Arterial cross-sectional diameter by intraluminal arterial casting after murine SAH; type: in vivo; conditions: 72 hrs post-SAH
Description: Male mice (body weight=20-25 gm) were anesthetized with isoflurane and subjected to endovascular perforation of the right anterior cerebral artery just distal to the middle cerebral artery bifurcation. Mice were allowed to recover from anesthesia and randomly assigned to treatment ([…] MnTnHex-2-PyP^5+ twice per day, i.p. with treatment begun 60 min post-SAH, n=15) and vehicle (saline 0.1 ml twice a day, n=15) groups.
The mice were anesthetized and subjected to intraluminal arterial casting for later determination of arterial cross-sectional diameter. Subarachnoid clot size was graded using a standardized scoring system.
Three mice died in the vehicle group (2 died 3 days post-SAH, 1 died 2 days post-SAH). Neurologic scores in surviving mice and clot size were compared with the Mann-Whitney U statistic. Vessel diameters were compared with the Student's t test.

[3] = tested on: rats subjected to 90 min MCAO; assay: Neurologic score after 90 min middle cerebral artery occlusion (MCAO); type: in vivo, rat; conditions: then twice daily s.c. for 7 days
Excerpt: (§1) Male Wistar rats (250-275 gm; Harlan Sprague Dawley, Inc. Indianapolis, Ind.) were anesthetized with 64-mg/kg intraperitoneal sodium pentobarbital and positioned in a stereotactic head frame. The skin was infiltrated with 1.0% lidocaine and a midline scalp incision was made. A burr hole was drilled over the left hemisphere, 7.2 mm anterior to the interauralline and 1.4 mm lateral to the sagittal suture. An intracerebroventricular (ICV) cannula (33 gauge) was positioned with the tip in the left lateral ventricle and fixed in place with screws and cyanoacrylate. The incision was closed with suture around this assembly. After emergence from anesthesia, the animals were returned to their cages with free access to water and food.
Following 2-3 days recovery, rats were allowed access to water but fasted from food for 12 hours to standardize glycemic state. Rats were then anesthetized with isoflurane in O2. Following tracheal intubation, the lungs were mechanically ventilated to maintain normocapnia. A 22-g needle thermistor was percutaneously placed adjacent to the skull beneath the temporalis. Pericranial temperature was servoregulated at 37.5±0.1° C. by surface heating or cooling. […]
Rats were subjected to 90 min middle cerebral artery occlusion. […] The doses were repeatedly twice daily as subcutaneous injections for 7 days after which neurologic function was assessed as described above. […]

[4] = tested on: rats subjected to 90 min MCAO; assay: Cerebral infarct volume after 90 min MCAO; type: in vivo, rat; conditions: 7 days after MCAO
Excerpt: as §1
Following 2-3 days recovery, rats were allowed access to water but fasted from food for 12 hours to standardize glycemic state. Rats were then anesthetized with isoflurane in O2. Following tracheal intubation, the lungs were mechanically ventilated to maintain normocapnia. A 22-g needle thermistor was percutaneously placed adjacent to the skull beneath the temporalis. Pericranial temperature was servoregulated at 37.5±0.1° C. by surface heating or cooling. The inspired isoflurane concentration was adjusted to 1.0-1.5% in 50% O2/balance N2. The tail artery was cannulated. The animals were then prepared for MCAO as previously described [Mackensen et al. J. Neurosci. 21:4582-4592, 2001; Longa et al. Stroke 20:84-91, 1989]. A midline cervical incision was made and the right common carotid artery was identified. […] The internal carotid artery (ICA) was dissected distally until the origin of the pterygopalatine artery was visualized. Following surgical preparation, a 20 min interval was allowed for physiologic stabilization.
Five min before MCAO onset, heparin (50 IU intra-arterial) was given to prevent intra-arterial thrombosis. A 0.25-mm diameter nylon monofilament, prepared with a silicone tip, was inserted into the ECA stump and passed distally through the ICA (20 mm from carotid bifurcation) until resistance was felt and the filament was secured. At MCAO onset, isoflurane was reduced to 0.8-1.0%.
After 90 min of MCAO, the occlusive filament was removed. The anesthetic state and pericranial temperature regulation were continued for an additional 100 min. The tail artery catheter was removed and the wounds were closed with suture. Isoflurane was discontinued. Upon recovery of the righting reflex, the tracheas were extubated and the animals were placed in an O2 enriched environment (FIO2=50%) for 1 hour. Animals were then randomized to experimental groups (see below).
Animals were weighed, anesthetized with isoflurane, and decapitated. The brains were removed, frozen at −40° C. in 2-methylbutane, and stored at −70° C. Infarct volume was measured by comparing the volume of histologically normal tissue observed in the ischemic hemisphere to the expected volume of normal tissue as derived from measurements of the contralateral, non-ischemic hemisphere [Swanson et al. J. Cereb. Blood Flow Metab. 10:290-293, 1990]. Serial quadruplicate […] coronal sections were taken using a cryotome at […] over the rostral-caudal extent of the infarct. The sections were dried and stained with hematoxylin and eosin. A section from each 660-μm interval was digitized with a video camera controlled by an image analyzer. […] With the observer blinded to experimental condition, the following regions of interest (ROI) were cursor outlined: non-infarcted ipsilateral cerebral cortex, non-infarcted ipsilateral subcortex, contralateral cerebral cortex, and contralateral subcortex. The area within each ROI (mm2) was determined by automated counting of calibrated pixels. Ipsilateral non-infarcted cortex and subcortex areas were subtracted from the corresponding contralateral ROI values to estimate the area of ischemic tissue damage to control for brain edema [Lin et al. Stroke 24:117-121, 1993]. […]

[5] = tested on: NF-κB; assay: EMSA of NF-κB DNA binding in nuclear extracts of ischemic brain after MCAO; type: in vivo, rat; conditions: 225 μg/kg IV after 90 min MCAO, ischemic brain harvested six hr later, 2 treated vs 2 vehicle rats
Description: (§2) Intravenous MnTnHex-2-PyP^5+ (hexyl) decreases post-ischemic NF-κB DNA binding to a κB consensus oligo due inhibition of NF-κB p65 nuclear translocation. Data are from 4 rats subjected to 90 min MCAO and then treated with vehicle or MnTnHex-2-PyP^5+ (225 μg/kg IV). Six hr later, ischemic brain was harvested for EMSA performed on nuclear extracts ([…]). Upper gel (EMSA): D and E (without and with p65 antibody, respectively) are rat #1 (vehicle). F and G (without and with p65 antibody, respectively) are rat #2 (hexyl). H and I=vehicle rat #3 (with and without p65). J and K=rat #4 (hexyl) with and without p65. A-C are control lanes (A=probe only, B=positive control (HeLa nuclear extract), C=cold competitor). Two slower migrating DNA binding complexes are observed (shift). The proteins in the slower migrating complexes were identified by super shift analysis with […] of p65-specific antibody. […] Lower gel: […]) from the same nuclear samples were immunoblotted with NF-κB p65-specific antibody, confirming NF-κB inhibition by MnTnHex-2-PyP^5+.

[6] = tested on: NF-κB p65; assay: Immunoblot of nuclear samples with NF-κB p65-specific antibody after MCAO; type: in vivo, rat; conditions: 225 μg/kg IV after 90 min MCAO; ischemic brain harvested six hr later
Description: as §2

[7] = tested on: TNF-α; assay: Cerebral TNF-α level by ELISA after MCAO; type: in vivo, rat; conditions: 225 μg/kg IV 5 min after reperfusion, s.c. at 12 and 18 hrs post-MCAO; brains harvested 24 hrs post-MCAO; n=3; P=0.04
Description: (§3) Rats were subjected to 90 min middle cerebral artery occlusion. Five min after onset of reperfusion, rats were randomly treated with vehicle (n=3) or 225 μg/kg IV MnTnHex-2-PyP^5+ (n=3) followed by subcutaneous vehicle or 225 μg/kg MnTnHex-2-PyP^5+, respectively, at 12 and 18 hrs post-MCAO. Brains were harvested at 24 hrs post-MCAO and analyzed for TNF-α and IL-6 by fluorescent enzyme-linked immunosorbent assay. Whole cell lysates from the whole brain tissue were obtained at the end of each experiment according to manufacture's protocol (Roche) with light modification. In brief, about 100 mg of brain tissue, which was diced into small pieces using a clean razor blade on ice, was placed into a pre-chilled microcentrifuge tube and further processed with […] of ice-cold lysis buffer (50 mM Tris-HCl, pH 7.5, 150 mM NaCl, 1% Nonidet P40, 0.5% sodium deoxycholat, 0.1% SDS, protease inhibitors). Samples were homogenized 10 seconds and incubated for 30 minutes on ice. Homogenates were centrifuged at 14,000 g for 10 minutes at 4° C. Supernatants were collected and proteins were measured by a BCA Protein Assay Kit (Thermo Scientific). Cerebral levels of TNF-α and IL-6 were determined by rat specific ELISA kits (Thermo Scientific, IL) and normalized by the total amount of proteins (pg/mg).

[8] = tested on: IL-6; assay: Cerebral IL-6 level by ELISA after MCAO; type: in vivo, rat; conditions: 225 μg/kg IV 5 min after reperfusion, s.c. at 12 and 18 hrs post-MCAO; brains harvested 24 hrs post-MCAO; n=3; P=0.04
Description: as §3

**Q.** What does the source list for CCCCCC[n+]1ccccc1-c1c2nc(c(-c3cccc[n+]3CCCCCC)c3ccc([n-]3)c(-c3cccc[n+]3CCCCCC)c3nc(c(-c4cccc[n+]4CCCCCC)c4ccc1[n-]4)C=C3)C=C2.[Mn+3] [MnTnHex-2-PyP^5+, Mn(III) 5,10,15,20-tetrakis(N-n-hexylpyridinium-2-yl)porphyrin]?
**A.** neuroscore (median±interquartile range) ([1]; 72 hrs post-SAH, 225 mg/kg twice per day i.p. begun 60 min post-SAH, n=14, 0=no deficit, maximal deficit 48, P=0.02 vs vehicle (14±21)): 2.5±9; deaths in treatment group ([1]; murine SAH, 225 mg/kg twice per day i.p., n=15, three mice died in vehicle group): One mouse in the MnTnHex-2-PyP^5+ group died at 2 days post-SAH; right anterior cerebral artery diameter (mean±SD) ([2]; vs vehicle 82±36 μm, P=0.0005): 130±19 μm; right middle cerebral artery diameter (mean±SD) ([2]; vs vehicle 83±33 μm, P=0.0033): 123±29 μm; right internal carotid artery diameter (mean±SD) ([2]; vs vehicle 109±35 μm, P=0.015): 143±30 μm; basilar artery diameter (mean±SD) ([2]; vs vehicle 198±19 μm, P=0.723, no effect of treatment): 200±17 μm; Neurologic score ([3]; 225 μg/kg i.v. 5 min after reperfusion onset, P=0.002 vs vehicle): improved; Neurologic score ([3]; 225 μg/kg intra-arterial plus s.c. 6 hours after reperfusion onset, P=0.04 vs vehicle): improved; cerebral infarct volume in the subcortex ([4]; 225 μg/kg i.v. 5 min after reperfusion onset, then twice a day s.c., P=0.01): reduced; reduction in total infarct volume ([4]; 225 μg/kg i.v. 5 min after reperfusion onset, then twice a day s.c., P=0.028): 32%; cerebral infarct volume in the cortex ([4]; 225 μg/kg i.v. 5 min after reperfusion onset, then twice a day s.c., P=0.05): reduced; cerebral infarct volume in the cortex ([4]; 225 μg/kg intra-arterial plus s.c. 6 hrs after reperfusion onset, then twice daily s.c., P=0.01): reduced; reduction in total infarct volume ([4]; 225 μg/kg intra-arterial plus s.c. 6 hrs after reperfusion onset, then twice daily s.c., P=0.03): 37%; Infarct size in the subcortex ([4]; 225 μg/kg intra-arterial plus s.c. 6 hrs after reperfusion onset, then twice daily s.c., P=0.58): not changed; post-ischemic NF-κB DNA binding to a κB consensus oligo (EMSA) [5]: Marked reduction; NF-κB p65 nuclear translocation (immunoblot of nuclear samples) [6]: inhibition; TNF-α concentration in brain [7]: decreased; IL-6 concentration in brain [8]: decreased
